The text below walks through data of US20240043404A1 (AbbVie Inc., priority 2009, published 2024).

The assay has as its system RS4;11 cells. In words: RS4;11 cell viability assay (CellTiter Glo).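 Note: acute lymphoblastic leukemia line RS4,11, EC50 derived from percentage of viable cells after treatment relative to untreated controls, cell killing taken as a measure of Bcl-2 inhibition.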 The format is cell-based, human. The note with it: Homo sapiens, RS4-11, 48 h, 50,000 cells per well, 10% human serum, 48 hours; read-out: RS4; 11 EC50 Values. Background: In ATP-based viability assays light output follows the ATP content of the culture.
Experimental: The acute lymphoblastic leukemia (ALL) cell line RS4;11 was used as the primary human cell line to assess the cellular activity of Bcl-2 selective agents in vitro and their efficacy in vivo.
Cell cytotoxicity EC50 values were assessed using CellTiter Glo (Promega) according to the manufacturer's recommendations. The EC50 values were determined as a percentage of viable cells following treatment compared to the untreated control cells.
In the case of `CC1(C)CCC(CN2CCN(c3ccc(C(=O)NS(=O)(=O)c4ccc(N[C@H]5CC[C@H](N(C6CC6)C6CC6)CC5)c([N+](=O)[O-])c4)c(Oc4cnc5[nH]ccc5c4)c3)CC2)=C(c2ccc(Cl)cc2)C1` [Example 100, Trans-4-(4-{[2-(4-chlorophenyl)-4,4-dimethylcyclohex-1-en-1-yl]methyl}piperazin-1-yl)-N-[(4-{[4-(dicyclopropylamino)cyclohexyl]amino}-3-nitrophenyl)sulfonyl]-2-(1H-pyrrolo[2,3-b]pyridin-5-yloxy)benzamide], the EC50 came to 137 nM.

`CC1(C)CCCC(c2ccc(Cl)cc2)=C1CN1CCN(c2ccc(C(=O)NS(=O)(=O)c3ccc(NCC4CCOCC4)c([N+](=O)[O-])c3)c(Oc3cnc4[nH]ccc4c3)c2)CC1` [Example 101, 4-(4-{[2-(4-chlorophenyl)-6,6-dimethylcyclohex-1-en-1-yl]methyl}piperazin-1-yl)-N-({3-nitro-4-[(tetrahydro-2H-pyran-4-ylmethyl)amino]phenyl}sulfonyl)-2-(1H-pyrrolo[2,3-b]pyridin-5-yloxy)benzamide]: the EC50 worked out at 299 nM.

Turning to `CCN1CCOCC1COc1ncc(S(=O)(=O)NC(=O)c2ccc(N3CCN(CC4=C(c5ccc(Cl)cc5)CC(C)(C)CC4)CC3)cc2Oc2cnc3[nH]ccc3c2)cc1Br` (stereo not shown) [Example 102, N-({5-bromo-6-[(4-ethylmorpholin-3-yl)methoxy]pyridin-3-yl}sulfonyl)-4-(4-{[2-(4-chlorophenyl)-4,4-dimethylcyclohex-1-en-1-yl]methyl}piperazin-1-yl)-2-(1H-pyrrolo[2,3-b]pyridin-5-yloxy)benzamide], the EC50 came to 622 nM.

As to `CCN1CCOCC1COc1ccc(S(=O)(=O)NC(=O)c2ccc(N3CCN(CC4=C(c5ccc(Cl)cc5)CC(C)(C)CC4)CC3)cc2Oc2cnc3[nH]ccc3c2)cc1[N+](=O)[O-]` (stereo not shown) [Example 103, 4-(4-{[2-(4-chlorophenyl)-4,4-dimethylcyclohex-1-en-1-yl]methyl}piperazin-1-yl)-N-({4-[(4-ethylmorpholin-3-yl)methoxy]-3-nitrophenyl}sulfonyl)-2-(1H-pyrrolo[2,3-b]pyridin-5-yloxy)benzamide], the EC50 is 39.2 nM.

With `CC1(C)CCC(CN2CCN(c3ccc(C(=O)NS(=O)(=O)c4ccc(OCC5COCCN5C5CCOCC5)c([N+](=O)[O-])c4)c(Oc4cnc5[nH]ccc5c4)c3)CC2)=C(c2ccc(Cl)cc2)C1` (stereo not shown) [Example 104, 4-(4-{[2-(4-chlorophenyl)-4,4-dimethylcyclohex-1-en-1-yl]methyl}piperazin-1-yl)-N-({3-nitro-4-[(4-tetrahydro-2H-pyran-4-ylmorpholin-3-yl)methoxy]phenyl}sulfonyl)-2-(1H-pyrrolo[2,3-b]pyridin-5-yloxy)benzamide], the EC50 is 71.2 nM.

Take `CC1(C)CCC(CN2CCN(c3ccc(C(=O)NS(=O)(=O)c4ccc(N[C@H]5CCCN(C6CCOCC6)C5)c([N+](=O)[O-])c4)c(Oc4cnc5[nH]ccc5c4)c3)CC2)=C(c2ccc(Cl)cc2)C1` [Example 105, 4-(4-{[2-(4-chlorophenyl)-4,4-dimethylcyclohex-1-en-1-yl]methyl}piperazin-1-yl)-N-[(3-nitro-4-{[(3S)-1-tetrahydro-2H-pyran-4-ylpiperidin-3-yl]amino}phenyl)sulfonyl]-2-(1H-pyrrolo[2,3-b]pyridin-5-yloxy)benzamide]: the EC50 came to 53.6 nM.

On to `CC1(C)CCC(CN2CCN(c3ccc(C(=O)NS(=O)(=O)c4cnc(NCC5CCOCC5)c(C#N)c4)c(Oc4cnc5[nH]ccc5c4)c3)CC2)=C(c2ccc(Cl)cc2)C1` [Example 106, 4-(4-{[2-(4-chlorophenyl)-4,4-dimethylcyclohex-1-en-1-yl]methyl}piperazin-1-yl)-N-({5-cyano-6-[(tetrahydro-2H-pyran-4-ylmethyl)amino]pyridin-3-yl}sulfonyl)-2-(1H-pyrrolo[2,3-b]pyridin-5-yloxy)benzamide], for which the EC50 turned out to be 826 nM.

`CC1(C)CCC(CN2CCN(c3ccc(C(=O)NS(=O)(=O)c4ccc(NCC5(N)CCOCC5)c([N+](=O)[O-])c4)c(Oc4cnc5[nH]ccc5c4)c3)CC2)=C(c2ccc(Cl)cc2)C1` [Example 108, N-[(4-{[(4-aminotetrahydro-2H-pyran-4-yl)methyl]amino}-3-nitrophenyl)sulfonyl]-4-(4-{[2-(4-chlorophenyl)-4,4-dimethylcyclohex-1-en-1-yl]methyl}piperazin-1-yl)-2-(1H-pyrrolo[2,3-b]pyridin-5-yloxy)benzamide]: the EC50 is 24.1 nM.

Turning to `CC1(C)CCC(CN2CCN(c3ccc(C(=O)NS(=O)(=O)c4cnc(N[C@H]5CC[C@H](N6CCOCC6)CC5)c(C#N)c4)c(Oc4cnc5[nH]ccc5c4)c3)CC2)=C(c2ccc(Cl)cc2)C1` [Example 109, Trans-4-(4-{[2-(4-chlorophenyl)-4,4-dimethylcyclohex-1-en-1-yl]methyl}piperazin-1-yl)-N-({5-cyano-6-[(4-morpholin-4-ylcyclohexyl)amino]pyridin-3-yl}sulfonyl)-2-(1H-pyrrolo[2,3-b]pyridin-5-yloxy)benzamide], the EC50 is 183 nM.

Turning to `CC1(C)CCC(CN2CCN(c3ccc(C(=O)NS(=O)(=O)c4ccc(NCC5CCOCC5)c(C#N)c4)c(Oc4cnc5[nH]ccc5c4)c3)CC2)=C(c2ccc(Cl)cc2)C1` [Example 110, 4-(4-{[2-(4-chlorophenyl)-4,4-dimethylcyclohex-1-en-1-yl]methyl}piperazin-1-yl)-N-({3-cyano-4-[(tetrahydro-2H-pyran-4-ylmethyl)amino]phenyl}sulfonyl)-2-(1H-pyrrolo[2,3-b]pyridin-5-yloxy)benzamide], the EC50 is 536 nM.

For `CC1(C)CCC(CN2CCN(c3ccc(C(=O)NS(=O)(=O)c4ccc(N[C@H]5CC[C@@H](N6CCOCC6)C5)c([N+](=O)[O-])c4)c(Oc4cnc5[nH]ccc5c4)c3)CC2)=C(c2ccc(Cl)cc2)C1` [Example 111, 4-(4-{[2-(4-chlorophenyl)-4,4-dimethylcyclohex-1-en-1-yl]methyl}piperazin-1-yl)-N-[(4-{[(1S,3R)-3-morpholin-4-ylcyclopentyl]amino)-3-nitrophenyl)sulfonyl]-2-(1H-pyrrolo[2,3-b]pyridin-5-yloxy)benzamide], the EC50 stood at 14.5 nM.

For the compound `CC1(C)CCC(CN2CCN(c3ccc(C(=O)NS(=O)(=O)c4ccc(N[C@@H]5CC[C@H](N6CCOCC6)C5)c([N+](=O)[O-])c4)c(Oc4cnc5[nH]ccc5c4)c3)CC2)=C(c2ccc(Cl)cc2)C1` [Example 112, 4-(4-{[2-(4-chlorophenyl)-4,4-dimethylcyclohex-1-en-1-yl]methyl}piperazin-1-yl)-N-[(4-{[(1R,3S)-3-morpholin-4-ylcyclopentyl]amino}-3-nitrophenyl)sulfonyl]-2-(1H-pyrrolo[2,3-b]pyridin-5-yloxy)benzamide], the EC50 is 20.6 nM.

In the case of `CC1(C)CCC(CN2CCN(c3ccc(C(=O)NS(=O)(=O)c4ccc(NCC5CNCCO5)c([N+](=O)[O-])c4)c(Oc4cnc5[nH]ccc5c4)c3)CC2)=C(c2ccc(Cl)cc2)C1` (stereo not shown) [Example 113, 4-(4-{[2-(4-chlorophenyl)-4,4-dimethylcyclohex-1-en-1-yl]methyl}piperazin-1-yl)-N-({4-[(morpholin-2-ylmethyl)amino]-3-nitrophenyl}sulfonyl)-2-(1H-pyrrolo[2,3-b]pyridin-5-yloxy)benzamide], the EC50 worked out at 1.36 nM.
